{
  "source": "patent US20120040464A1",
  "about": "“METHOD FOR GENERATING HOMOPLASMIC CELLS FROM HETEROPLASMIC CELLS” (NATIONAL CENTER OF NEUROLOGY AND PSYCHIATRY, priority 2009, published 2012)",
  "tested_on": "MELAS cells (primary culture cells from the skeletal muscle and skin of MELAS patients)",
  "conditions": "100 μM, 30 minutes",
  "procedure": "MELAS cells were plated to result in a cell density of 1×10^5 to 1×10^6 cells/mL in the presence of DMEM containing 10% FCS, and they were then cultured at 37° C. in a 5% CO2 atmosphere for 3 days. After completion of the culture for 3 days, when the cell density reached 5×10^5 to 6×10^6 cells/mL, the cells were diluted by a factor of 10^4 to 1.2×10^5. The resultant cells were plated and were further cultured for 15 days. After completion of the culture for 15 days, several single colonies of cells were selected, and DNA was then extracted by a common method. Using the extracted DNA sample as a template, PCR was carried out with a primer pair for amplifying a site around the nucleotide at position 3243 of the mtDNA. Thereafter, the PCR product was treated with ApaI. In the case of normal mtDNA, the sequence around the nucleotide at position 3243 is GAGCCC (wherein the underlined portion corresponds to the nucleotide at position 3243). […] Accordingly, it becomes possible to evaluate the heteroplasmic state of the cells by calculating the ratio of the 182-bp and 112-bp bands to the 294-bp bands (see Goto et al., Nature, 348, 651-653, 1990 for the details of this method).\nThereafter, the cells were washed with PBS three times, and were then cultured for 3 days. After completion of the culture for 3 days, when the cell density reached 5×10^5 to 6×10^6 cells/mL, the cells were diluted by a factor of 10^4 to 1.2×10^5. The resultant cells were plated and were further cultured for 15 days. After completion of the culture for 15 days, several single colonies of cells were selected, and DNA was then extracted by a common method. The intracellular percentage of the A3243G substitution mutation of mtDNA was examined with respect to the obtained DNA samples by the same method as described above.",
  "data": [
    {"compound": "OO", "note": "[hydrogen peroxide]", "values": [
      {"measurement": "percentage of A3243G substitution mutation in cell clones obtained after a hydrogen peroxide treatment", "setting": "then 3 days and 15 days culture, single-colony clones with decreased percentage, e.g. clone 16, clone 25", "value": "~0", "unit": "%"},
      {"measurement": "percentage of A3243G substitution mutation in clones where it became higher than without hydrogen peroxide treatment", "setting": "e.g. clones 15, 27, 29, 32, 34, 35, 36, 39, untreated 30%", "value": "> 30", "unit": "%"},
      {"measurement": "effect of treatment on homoplasmic state of the cells", "setting": "MELAS cells", "value": "promotes the conversion of the cells to a homoplasmic state"}
    ]}
  ]
}
